Laboratory results from paper PMC5437200, “Ionic liquids for the passive sampling of sulfonamides from water—applicability and selectivity study” (Analytical and Bioanalytical Chemistry, 2017).

Assays:
[1] = ionization degrees of sulfonamides in the donor solution (calculated); assay type: physicochemical; details: initial pH 5.64; calculated using equations in ref 39
[2] = parameters: method as in PMID 22579461; details: cited from earlier work
[3] = octanol-water shake experiment for logKOW and logDOW; assay type: physicochemical; details: for logD: n-octanol/ultrapure water pH 5.6, room temperature, read-out: LogD OW pH 5.6 (exp); for LogK OW (exp): n-octanol/ultrapure water, room temperature
[4] = stability (recovery) of ionic liquids inside the PASSIL dosimeter; assay type: physicochemical; details: PES membranes, 14-day passive sampling, 20 °C; from IL mass before and after
Description: Passive sampling experiments were conducted analogously to previous studies. The passive dosimeter was made of plexiglass and contained two polyethersulfone (PES) membranes with their inner sides covered with the receiving phase—ionic liquid (separately for each of the seven tested ILs) of a total mass equal to 200 mg. Nylon (Phenomenex) and Teflon (Merck) membranes were also tested. The donor phase was 100 mL of water solution with an initial sulfonamide concentration of 2 μg mL^−1. The experimental setup was kept away from light radiation and at a constant temperature (20 °C). Each extraction lasted 14 days and the samples (1 mL) of the donor solution were collected every 2 days. The solution was stirred using a magnetic stirrer (1000 rpm), which was not renewed. After the experiment, the receiving phase was dissolved using 50 mL of acetonitrile. All the obtained samples (both from the donor and receiving phases) were analyzed by HPLC with a diode-array detector (DAD, Schimadzu, 272 nm). The analysis was performed using a Gemini 5-μm C18 column (Phenomenex). The injection volume was 10 μL. The flow rate was 1.5 mL min^−1. Acetonitrile (ACN) was used as the organic component of the mobile phase, and the aqueous component was an acetate buffer (5 mmol L^−1 CH3COONH4, pH = 4) with 5% of ACN. The mobile phase gradient was applied. The recovery of the receiving phase, the extraction efficiency, and the sampling rate (for [P666-14][N(CN)2]) were calculated for each analyte according to the equations presented in [30]. Moreover, micrographs using a HITACHI S-3400N scanning electron microscope (SEM) were taken to study the morphological appearance of the membranes covered with an ionic liquid [P666-14][N(CN)2].
The basic parameter of an applied ionic liquid is its physical stability inside the homemade dosimeter expressed by the IL recovery (%) calculated from the difference between ionic liquid masses before and after the passive sampling. The highest recovery (more than 90%) of ionic liquids was achieved by phosphonium-cation-based ILs and PES membranes (Fig. 3). […]

SMILES | α2 ionization degree [1] [%] | α3 ionization degree (negatively charged form) [1] [%] | logD [3] | LogK OW (exp) [3] | pKa2 [2] | pKa3 [2] | IL recovery [4] [%]
Nc1ccc(S(=O)(=O)Nc2ncccn2)cc1 [SDZ, sulfadiazine] |  |  |  |  | 1.8 |  | 
CCCCCCCCCCCCCC[P+](CCCCCC)(CCCCCC)CCCCCC.N#C[N-]C#N [[P666-14][N(CN)2], trihexyl(tetradecyl)phosphonium dicyanamide] |  |  |  |  |  |  | 92.4
Nc1ccc(S(=O)(=O)Nc2ccc(Cl)nn2)cc1 [SCP, sulfachloropyridazine] | 100.0 | 58.0 | 0 | 0.36 | 2.2 | 5.5 | 
CCCCCCCCCCCCCC[P+](CCCCCC)(CCCCCC)CCCCCC.O=S(=O)([N-]S(=O)(=O)C(F)(F)F)C(F)(F)F [[P666-14][TFN], trihexyl(tetradecyl)phosphonium bis(trifluoromethylsulfonyl)imide] |  |  |  |  |  |  | 98.9
COc1cc(NS(=O)(=O)c2ccc(N)cc2)nc(OC)n1 [SDX, sulfadimethoxine] | 99.9 | 35.5 |  |  | 2.5 | 5.9 | 
CCCCCCCCCCCCCC[P+](CCCCCC)(CCCCCC)CCCCCC.FC(F)(F)C(F)(F)[P-](F)(F)(F)(C(F)(F)C(F)(F)F)C(F)(F)C(F)(F)F [[P666-14][(C2F5)3PF3], trihexyl(tetradecyl)phosphonium tri(pentafluoroethyl)trifluorophosphate] |  |  |  |  |  |  | 98.5

More lines, main results first:

α2 ionization degree [1] [%] | α3 ionization degree (negatively charged form) [1] [%] | logD [3] | LogK OW (exp) [3] | SMILES | pKa2 [2] | pKa3 [2] | IL recovery [4] [%]
100.0 | 3.4 | -0.17 | −0.16 | Nc1ccc(S(=O)(=O)Nc2nccs2)cc1 [STZ, sulfathiazole] | 2.1 | 7.1 | 
100.0 | 58.0 | -0.34 | 0.01 | Cc1nnc(NS(=O)(=O)c2ccc(N)cc2)s1 [SMT, sulfamethiazole] | 1.8 | 5.5 | 
100.0 | 6.5 | 0.16 | 0.19 | Cc1ccnc(NS(=O)(=O)c2ccc(N)cc2)n1 [SMZ, sulfamerazine] | 1.8 | 6.8 | 
99.9 |  | 0.04 | 0.04 | Nc1ccc(S(=O)(=O)Nc2ccccn2)cc1 [SPD, sulfapyridine] | 2.4 | 8.2 | 
